{"source": "patent US10905676B2", "about": "“Angiotensin II receptor antagonist for the prevention or treatment of systemic diseases in cats” (priority 2017, dated 2021)", "key": {"[1]": {"experiment": "Safety after repeated oral administration over four weeks (Example 3)", "format": "in vivo, cats", "procedure": "5-5. 1 kg were used in this study. The animals were allocated to 3 groups, 4 animals per group. […] The bottles with the test/control article looked identical with the exception of the animal no. in order to achieve blinding.\nBlood samples for haematology and clinical chemistry were collected from the animals on days-1 (i.e. prior to the first treatment) and again on days 3, 7, 14, 28. Body weights were measured weekly and electrocardiography recording were made on days −1, 14, 21 and 28. A detailed physical examination including determination of rectal temperature and respiratory rate was carried out on days -1, 7, 14, 22 and 28. Systolic blood pressure (once daily) and heart rate (twice daily) were determined five days per week beginning prior to treatment until necropsy. The palatability of the administered article was assessed at various time points throughout treatment using a scoring system. On day 28 of the study, all animals were subjected to necropsy and stomach and kidneys were examined histopathologically. Relevant parameters were analysed using appropriate statistical procedures."}, "[2]": {"conditions": "human patients, 160 mg daily (80 mg twice daily); cited from earlier work"}, "[3]": {"test_system": "cats with systemic hypertension", "experiment": "Six-month extended-use study in cats with systemic hypertension (Example 5)", "format": "in vivo", "conditions": "for Group mSBP, Mean: baseline 176", "procedure": "The primary variables for assessment in this extensive use study were adverse events and change from baseline in retinal photographs. […] No placebo group was used in this study. […] The maintenance dose was down-titrated if the mSBP was below the target range of 120-160 mmHg at any visit. In those cases, the dose was reduced to 1 mg/kg and further reduced to 0.5 mg/kg SID if mSBP remained below the target range. […] All parameters were evaluated by the Investigator for clinical significance. The parameters were then compared to baseline, and changes were summarized by treatment group as well as by subpopulation, if appropriate."}}}
{"smiles": "CCCc1nc2c(C)cc(-c3nc4ccccc4n3C)cc2n1Cc1ccc(-c2ccccc2C(=O)O)cc1", "note": "[telmisartan, 4′-[2-n-propyl-4-methyl-6-(1-methylbenzimidazol-2-yl)-benzimidazol-1-ylmethyl]-biphenyl-2-carboxylic acid]", "values": [{"measurement": "physical and ECG examinations", "setting": "[1]; all time points", "result": "did not reveal treatment-related findings"}, {"measurement": "histopathology of stomach and kidneys", "setting": "[1]; day 28", "result": "no histopathological findings considered to be associated with the treatment"}, {"measurement": "necropsy findings", "setting": "[1]; day 28", "result": "No animal showed any specific finding"}, {"measurement": "body weights, rectal temperature, respiratory and heart rates", "setting": "[1]; during the course of the study", "result": "No significant differences"}, {"measurement": "clinical findings", "setting": "[1]; entire study period, 1 and 3 mg/kg once daily", "result": "No clinical findings clearly attributable to the treatment"}, {"measurement": "haematological and clinical chemistry parameters including differential leukocyte count", "setting": "[1]; treated groups vs concurrent controls", "result": "No treatment-related differences"}, {"measurement": "plasma level (Cmax±SD)", "setting": "[2]", "result": "about 2800±2400 ng/ml"}, {"measurement": "rescue cases (removed due to mSBP >180 mmHg), share of end of study outcomes", "setting": "[3]; 8/107 cats", "result": 7.5, "unit": "%"}, {"measurement": "SAEs determined to be possibly attributable to telmisartan", "setting": "[3]; 11 SAEs", "result": 10.3, "unit": "%"}, {"measurement": "cats with Serious AEs (SAEs)", "setting": "[3]; 24 cats of 107, six-month study", "result": 22.4, "unit": "%"}, {"measurement": "cats with Non-serious AEs (NSAEs)", "setting": "[3]; 91 cats of 107, six-month study", "result": 85.0, "unit": "%"}, {"measurement": "cases with SBP maintained within the target range (120-180 mmHg)", "setting": "[3]; 97/107 cats", "result": 90.7, "unit": "%"}, {"measurement": "cats scored as \"better\" in the IRIS blood pressure sub-staging", "setting": "[3]; CKD and CKD and hyperthyroid subpopulations", "result": "83.0% to 98.1"}, {"measurement": "Mean SBP of Cat 329-454", "setting": "[3]; Visit 2 (Week 2), after 3.0 (1.5 BID) mg/kg daily", "result": 108.3, "unit": "mmHg"}, {"measurement": "Mean SBP of Cat 329-454", "setting": "[3]; Visit 3 (Week 4), after 1.0 mg/kg SID", "result": 116.0, "unit": "mmHg"}, {"measurement": "Mean SBP of Cat 329-454", "setting": "[3]; Visit 4 (Week 8), after 0.5 mg/kg SID", "result": 157.7, "unit": "mmHg"}, {"measurement": "Mean SBP of Cat 329-454", "setting": "[3]; Visit 5 (Week 14), after 2.0 mg/kg SID", "result": 100.0, "unit": "mmHg"}, {"measurement": "Mean SBP of Cat 329-454", "setting": "[3]; Visit 6 (Week 20), after 1.0 mg/kg SID", "result": 125.3, "unit": "mmHg"}, {"measurement": "Mean SBP of Cat 329-454", "setting": "[3]; Visit 7 (Week 26), after 2.0 mg/kg SID", "result": 126.0, "unit": "mmHg"}, {"measurement": "Group mSBP, Median", "setting": "[3]; Week 4 (n = 107)", "result": 149, "unit": "mmHg"}, {"measurement": "Maximum mSBP", "setting": "[3]; Week 4 (n = 107)", "result": 179, "unit": "mmHg"}, {"measurement": "Maximum mSBP Change from baseline", "setting": "[3]; Week 4 (n = 107)", "result": "14 ΔmmHg"}, {"measurement": "Mean mSBP Change from baseline", "setting": "[3]; Week 4 (n = 107)", "result": "−29 ΔmmHg"}, {"measurement": "Median mSBP Change from baseline", "setting": "[3]; Week 4 (n = 107)", "result": "−26 ΔmmHg"}, {"measurement": "Minimum mSBP", "setting": "[3]; Week 4 (n = 107)", "result": 95, "unit": "mmHg"}, {"measurement": "Minimum mSBP Change from baseline", "setting": "[3]; Week 4 (n = 107)", "result": "−76 ΔmmHg"}, {"measurement": "Group mSBP, Mean", "setting": "[3]; Week 4 (n = 107)", "result": 148, "unit": "mmHg"}, {"measurement": "Group mSBP, Median", "setting": "[3]; Week 8 (n = 102)", "result": 148, "unit": "mmHg"}, {"measurement": "Maximum mSBP Change from baseline", "setting": "[3]; Week 8 (n = 102)", "result": "7 ΔmmHg"}, {"measurement": "Mean mSBP Change from baseline", "setting": "[3]; Week 8 (n = 102)", "result": "−28 ΔmmHg"}, {"measurement": "Median mSBP Change from baseline", "setting": "[3]; Week 8 (n = 102)", "result": "−28 ΔmmHg"}, {"measurement": "Minimum mSBP", "setting": "[3]; Week 8 (n = 102)", "result": 105, "unit": "mmHg"}, {"measurement": "Minimum mSBP Change from baseline", "setting": "[3]; Week 8 (n = 102)", "result": "−79 ΔmmHg"}, {"measurement": "Group mSBP, Mean", "setting": "[3]; Week 8 (n = 102)", "result": 148, "unit": "mmHg"}, {"measurement": "Group mSBP, Median", "setting": "[3]; Week 14 (n = 92)", "result": 144, "unit": "mmHg"}, {"measurement": "Maximum mSBP Change from baseline", "setting": "[3]; Week 14 (n = 92)", "result": "25 ΔmmHg"}, {"measurement": "Mean mSBP Change from baseline", "setting": "[3]; Week 14 (n = 92)", "result": "−33 ΔmmHg"}, {"measurement": "Median mSBP Change from baseline", "setting": "[3]; Week 14 (n = 92)", "result": "−32 ΔmmHg"}, {"measurement": "Minimum mSBP", "setting": "[3]; Week 14 (n = 92)", "result": 77, "unit": "mmHg"}, {"measurement": "Minimum mSBP Change from baseline", "setting": "[3]; Week 14 (n = 92)", "result": "−115 ΔmmHg"}, {"measurement": "Group mSBP, Mean", "setting": "[3]; Week 14 (n = 92)", "result": 142, "unit": "mmHg"}, {"measurement": "Group mSBP, Median", "setting": "[3]; Week 20 (n = 81)", "result": 148, "unit": "mmHg"}, {"measurement": "Maximum mSBP Change from baseline", "setting": "[3]; Week 20 (n = 81)", "result": "16 ΔmmHg"}, {"measurement": "Mean mSBP Change from baseline", "setting": "[3]; Week 20 (n = 81)", "result": "−30 ΔmmHg"}, {"measurement": "Median mSBP Change from baseline", "setting": "[3]; Week 20 (n = 81)", "result": "−28 ΔmmHg"}, {"measurement": "Minimum mSBP", "setting": "[3]; Week 20 (n = 81)", "result": 89, "unit": "mmHg"}, {"measurement": "Minimum mSBP Change from baseline", "setting": "[3]; Week 20 (n = 81)", "result": "−91 ΔmmHg"}, {"measurement": "Group mSBP, Mean", "setting": "[3]; Week 20 (n = 81)", "result": 145, "unit": "mmHg"}, {"measurement": "Group mSBP, Median", "setting": "[3]; Week 26 (n = 73)", "result": 147, "unit": "mmHg"}, {"measurement": "Maximum mSBP Change from baseline", "setting": "[3]; Week 26 (n = 73)", "result": "30 ΔmmHg"}, {"measurement": "Mean mSBP Change from baseline", "setting": "[3]; Week 26 (n = 73)", "result": "−25 ΔmmHg"}, {"measurement": "Median mSBP Change from baseline", "setting": "[3]; Week 26 (n = 73)", "result": "−28 ΔmmHg"}, {"measurement": "Minimum mSBP", "setting": "[3]; Week 26 (n = 73)", "result": 104, "unit": "mmHg"}, {"measurement": "Minimum mSBP Change from baseline", "setting": "[3]; Week 26 (n = 73)", "result": "−69 ΔmmHg"}, {"measurement": "Group mSBP, Mean", "setting": "[3]; Week 26 (n = 73)", "result": 150, "unit": "mmHg"}, {"measurement": "cats with retinal photographs improved compared to baseline", "setting": "[3]; at all subsequent visits", "result": "6.9% to 7.4"}, {"measurement": "mean change in SBP from baseline (reduction)", "setting": "[3]; each visit, Examples 4 and 5, FIG. 2", "result": "greater than 20 mmHg"}, {"measurement": "SAE anemia and dehydration", "setting": "[3]; six-month study", "result": 6.5, "unit": "%"}, {"measurement": "SAE anorexia, vomiting", "setting": "[3]; six-month study", "result": 5.6, "unit": "%"}, {"measurement": "SAE weight loss", "setting": "[3]; six-month study", "result": 8.4, "unit": "%"}, {"measurement": "cases rescued due to hypotension", "setting": "[3]; two cats", "result": 1.9, "unit": "%"}]}
